# From US20200113920A1, “COMPOSITIONS AND METHODS FOR TREATMENT OF MICROSPORIDIA INFECTION USING PROTEASOME INHIBITORS INCLUDING IXAZOMIB” (BARNARD COLLEGE, priority 2018, published 2020)
# Structures can show the parent of a compound that is named as a salt. Non-standard residues stand in square brackets, D forms with d. Residues, ends and D or L forms follow the SMILES beside them. ξ: configuration not given here. *: point of attachment. Cbz = O=C(OCc1ccccc1)*; ξL = CC(C)CC(N)C(=O)O
# Experiments:
# [1] = system: N. ceranae; assay: N. ceranae infection intensity in experimentally infected honey bees fed drug in sucrose syrup; type: in vivo, Nosema ceranae
# Experimental: that works by reacting with the β5 subunit responsible for chymotrypsin-like activity (Goldberg, 2012). After experimentally infecting bees, infected bees were fed sucrose syrup or sucrose syrup containing 500 μM MG132 for 2 days starting on day 6 post infection. On day 8 post infection, spore levels were then measured using light microscopy to determine the effects of proteasome inhibition on N. ceranae infection intensity. […] MG132 is a poorly bioavailable proteasome inhibitor with known toxicity in multicellular eukaryotes. […] Significant effort has been directed towards finding novel strategies for targeting the proteasome (Goldberg, 2012; Śledź and Baumeister, 2016; Cromm and Crews, 2017), providing a number of pharmacologic agents with better efficacy, improved bioavailability, and increased selectivity. We first tested the ability of ixazomib, a modified peptide boronic acid that binds the β5 site of the 20 S proteasome and inhibits proteasome activity (Kupperman et al. 2010), to reduce N. ceranae infection in honey bees. Ixazomib is commercially available (e.g., from Selleck Chemincals) and has the structure of […]
# [2] = system: N. ceranae; assay: N. ceranae infection in newly eclosed, experimentally infected honey bees fed proteasome inhibitors (spore counting and quantitative PCR); type: in vivo, Nosema ceranae; conditions: for infection intensity after cessation of treatment (rebound): four days treatment, then sucrose solution alone for 4 days, spore counting and DNA; for efficacy against N. ceranae infection relative to Fumagillin: feeding bees during N. ceranae infection
# From the text: To standardize experiments by using age-matched bees and to allow for longer treatment periods, we used newly enclosed bees and tested the effects of a number of commercially available proteasome inhibitors, including Ixazomib (MLN2238) (purchased from Selleck Chemicals), Ixazomib citrate (MLN9708) (purchased from Selleck Chemicals), Oprozomib (ONX 0912) (purchased from Selleck Chemicals), Dexazomib (purchased from Selleck Chemicals), Carfilzomib (purchased from Selleck Chemicals), Bortezomib (purchased from Selleck Chemicals), Epoxomicin (purchased from Selleck Chemicals), HMB-Val-Ser-Leu-VE (purchased from Cayman Chemical), MG-262 (purchased from APExBIO), and the two stereoisomers of MG132 (S and R) (purchased from Cayman Chemical) as well as Fumagillin (purchased from Selleck Chemicals). On day two post-eclosion, N. ceranae spores (5×10^6 ml) were fed to bees in sucrose solution ad libitum (Fries et al. 2013) for 48 hours. At 3 days post infection, honey bees in individual cages were fed sucrose solution containing one of the pharmacologic agents at 40 μM or vehicle control alone. For each trial, we tested pairs of novel compounds simultaneously with an untreated group, a Fumagillin treated group, and an Ixazomib-treated group. After 4 days of drug feeding, honey bee midguts were dissected, and infection levels were assessed by spore counting and quantitative PCR.
# We focused on ixazomib and ixazomib citrate for further experiments. Again using newly eclosed bees, we treated infected bees for up to eight days with ixazomib, Fumagillin, or sucrose solution alone, and measured infection level by spore counting and DNA on days 4 and 8 post initiation of treatment (FIGS. 4A and 4B). […] Finally, the goal was to determine whether any rebound of N. ceranae infection was observed after cessation of treatment by ixazomib and ixazomib citrate as has been reported for Fumagillin (Huang et al. 2013). Infected newly eclosed bees were treated with sucrose solution containing ixazomib, ixazomib citrate, Fumagillin, or vehicle alone for four days. We then switched all cages to sucrose solution alone for 4 days and then measured infection level by spore counting and DNA. We observed that infection intensity stayed the same for bees receiving sucrose solution for the whole experiment, increased for those bees treated with Fumagillin first, and decreased for those bees fed either ixazomib or ixazomib citrate first (FIGS. 4E and 4F).
# [3] = system: Encephalitozoon hellem; assay: E. hellem infection of RK-13 cells, qPCR-based assay of pathogen and host cell genome equivalents; conditions: four-day infection of RK-13 cells
# From the text: (§1) Thus, it was hypothesized that pharmacological inhibition of the UPS will reduce infection intensity of diverse microsporidia in their respective host species. To test this hypothesis, we chose to focus on Encephalitozoon hellem, a microsporidia species first described as the cause of keratoconjunctivitis in 3 AIDS patients in 1991 (Didier et al. 1991) and subsequently observed in numerous immunocompromised patients (Weiss and Becnel, 2014). The genome of E. hellem has been sequenced (Pombert et al. 2012) and it is easily culturable (Molestina et al. 2014), making it ideal for such studies.
# [4] = system: honey bees; assay: Honey bee survival during drug feeding; type: in vivo, Apis mellifera; conditions: 40 μM in sucrose solution for 10 days starting day 3 post-eclosion, newly emerged bees
# Experimental: To assess the impact of ixazomib treatment on age-matched honey bees, newly emerged bees were fed sucrose solution containing ixazomib, ixazomib citrate, Fumagillin (all at 40 μM), or vehicle alone for 10 days starting on day 3 post-eclosion.
# [5] = system: rabbit kidney cell line (RK-13) cells; assay: Rabbit cell numbers in E. hellem-infected RK-13 culture; type: cell-based; conditions: 10-100 nM ixazomib; four-day infection of RK-13 cells
# From the text: as §1
# [6] = system: N. ceranae; assay: N. ceranae infection in naturally infected bees from a highly infected colony; type: in vivo, Nosema ceranae; conditions: bees from a highly infected colony (prevalence>90% infected); fed 2 days vs DMSO vehicle control
smiles,measurement,setting,value
CO[C@@H]1[C@H](OC(=O)/C=C/C=C/C=C/C=C/C(=O)O)CC[C@]2(CO2)[C@H]1[C@@]1(C)O[C@@H]1CC=C(C)C [Fumagillin],"N. ceranae infection intensity, Fumagillin compared with MG132","[1]; two days of feeding Fumagillin, data not shown",similar
same,infection intensity after cessation of treatment (rebound),[2],increased
same,"E. hellem infection intensity, Fumagillin compared with ixazomib",[3]; 50 ng/ml Fumagillin,comparable
same,honey bee survival,[4],no differences in the survival between treatments
CCOC(=O)/C=C/[C@H](CC(C)C)NC(=O)[C@H](CO)NC(=O)[C@@H](NC(=O)c1cccc(O)c1C)C(C)C [HMB-Val-Ser-Leu-VE],infection level by relative genome equivalents,"[2]; 40 μM in sucrose solution, from 3 days post infection, 4 days of drug feeding, midguts, quantitative PCR",all tested proteasome inhibitors except HMB-Val-Ser-Leu-VE
CC(C)C[C@H](NC(=O)CNC(=O)c1cc(Cl)ccc1Cl)B1OC(=O)C(CC(=O)O)(CC(=O)O)O1 [Ixazomib citrate],honey bee survival,[4],no differences in the survival between treatments
CC(C)C[C@H](NC(=O)CNC(=O)c1cc(Cl)ccc1Cl)B(O)O [Ixazomib],rabbit cell numbers,[5],without substantial reduction in rabbit cell numbers
same,N. ceranae infection intensity by spore counting and DNA analysis,[2]; 2.5 μM,"diminished, but still robust, reduction in infection intensity"
same,impact on N. ceranae infection levels (ranking among tested inhibitors),"[2]; 40 μM, 4 days of drug feeding, spore counting and quantitative PCR",most effective at reducing infection levels
same,efficacy against N. ceranae infection relative to Fumagillin,[2],better efficacy than Fumagillin
same,infection intensity after cessation of treatment (rebound),[2],decreased
same,"N. ceranae infection level, dose and time dependence","[2]; treated up to eight days, measured days 4 and 8, spore counting and DNA analysis (FIGS. 4A-4F)",stably reduces N. ceranae infection level in a dose and time dependent manner
same,N. ceranae infection by both spore-counting and DNA analysis,[6],striking reduction
same,E. hellem infection intensity,"[3]; 10-100 nM ixazomib, preliminary results",reduces E. hellem infection intensity
same,honey bee survival,[4],no differences in the survival between treatments
CC(C)CC(NC(=O)[C@H](CC(C)C)NC(=O)OCc1ccccc1)C(=O)N[C@H](C=O)CC(C)C (stereo partly drawn) [MG132] (Cbz-Leu-[ξL]-Leu-aldehyde),N. ceranae infection intensity (spore levels by light microscopy),"[1]; experimentally infected bees, 500 μM MG132 in sucrose syrup for 2 days (48 hours) from day 6 post infection, measured day 8",dramatic reduction in infection intensity
same,efficacy against N. ceranae infection relative to Fumagillin,[2],not as efficacious as Fumagillin
